Results on 37 compounds are retold here after patent US9890152B2 (Genentech, Inc., priority 2012, dated 2018).

T1 sequence (P00533 with tags, fused parts or gaps DEL746-750/T790M limits assumed): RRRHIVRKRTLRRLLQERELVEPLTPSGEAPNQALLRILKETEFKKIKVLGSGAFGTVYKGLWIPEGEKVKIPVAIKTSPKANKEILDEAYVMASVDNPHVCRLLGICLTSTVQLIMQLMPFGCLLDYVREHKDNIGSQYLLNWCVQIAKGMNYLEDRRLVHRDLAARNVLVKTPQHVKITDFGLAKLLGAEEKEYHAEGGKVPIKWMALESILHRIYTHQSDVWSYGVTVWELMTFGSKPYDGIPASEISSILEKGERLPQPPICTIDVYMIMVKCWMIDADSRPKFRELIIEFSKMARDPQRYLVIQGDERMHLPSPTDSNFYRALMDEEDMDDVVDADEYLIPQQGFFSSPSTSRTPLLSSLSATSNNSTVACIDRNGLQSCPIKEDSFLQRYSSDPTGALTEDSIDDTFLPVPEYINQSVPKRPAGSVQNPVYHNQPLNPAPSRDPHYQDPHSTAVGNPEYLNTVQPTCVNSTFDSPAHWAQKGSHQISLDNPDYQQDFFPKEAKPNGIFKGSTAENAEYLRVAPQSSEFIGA

This experiment concerns the target T1, EGFR del746-750 T790M (Homo sapiens, UniProt P00533, DEL746-750/T790M).
T1 construct: purchased Carna Biosciences 08-528
As to the kind of experiment: EGFR del746-750 T790M biochemical assay (Caliper mobility shift). To be noted: 5 μM ATP, 30 min, room temperature; apparent Ki (Morrison) converted by Cheng-Prusoff, Km of ATP 2.1 μM; read-out: EGFR(T790M/d746-750) Ki.
Take `Cc1nc2cnc(Nc3ccnc(-n4cnc(S(C)(=O)=O)c4)n3)cc2n1C(C)C` [Example 337, 1-Isopropyl-2-methyl-N-(2-(4-(methylsulfonyl)-1H-imidazol-1-yl)pyrimidin-4-yl)-1H-imidazo[4,5-c]pyridin-6-amine]: the Ki is 524 nM.

In the case of `CCNC(=O)c1cn(C(C)CC)c2cc(Nc3ccnc(N4CC[C@@H](O)[C@@H](F)C4)n3)ncc12` (single isomer, unassigned) [Example 370], the Ki came to 4.02 nM. In the case of `Cc1nc2cnc(Nc3ccnc(N4CC[C@](C)(O)[C@H](F)C4)n3)cc2n1C(C)C` [Example 672] it was 135 nM. In the case of `Cc1nc2cnc(Nc3ccnc(N4CCC(F)CC4)n3)cc2n1C(C)C` [Example 591, [2-(4-Fluoropiperidin-1-yl)pyrimidin-4-yl]-(1-isopropyl-2-methyl-1H-imidazo[4,5-c]pyridin-6-yl)amine] it was 55 nM; in that of `CO[C@@H]1CCN(c2nccc(Nc3cc4c(cn3)c(C(=O)NC3CCOCC3)cn4C(C)C)n2)C[C@@H]1F` [Example 380, 6-((2-((3S,4R)-3-fluoro-4-methoxypiperidin-1-yl)pyrimidin-4-yl)amino)-1-isopropyl-N-(tetrahydro-2H-pyran-4-yl)-1H-pyrrolo [3,2-c]pyridine-3-carboxamide], 6.96 nM; in that of `CO[C@H]1CN(c2nccc(Nc3cc4c(cn3)nc(C)n4C(C)C)n2)CC[C@@H]1O` (racemic) [Example 509, (±)-1-(4-((1-Isopropyl-2-methyl-1H-imidazo[4,5-c]pyridin-6-yl)amino)pyrimidin-2-yl)-3-methoxypiperidin-4-ol], 348 nM. In the case of `CO[C@@H]1CCN(c2nccc(Nc3cc4c(cn3)nc([C@@H](C)O)n4[C@@H](C)C(F)(F)F)n2)C[C@@H]1F` [Example 290, (R)-1-[6-[2-((3S,4R)-3-Fluoro-4-methoxypiperidin-1-yl)-pyrimidin-4-ylamino]-1-((S)-2,2,2-trifluoro-1-methylethyl)-1H-imidazo[4,5-c]pyridin-2-yl]ethanol] it was 4.65 nM; in that of `CC(C)n1c(CO)nc2cnc(Nc3ccnc(N4CCC(S(C)(=O)=O)CC4)n3)cc21` [Example 661], 900 nM; in that of `COC1CCN(c2nccc(Nc3cc4c(cn3)nc(C)n4C(C)C)n2)CC1(F)F` (racemic) [Example 528, (±)-[2-(3,3-Difluoro-4-methoxypiperidin-1-yl)pyrimidin-4-yl](1-isopropyl-2-methyl-1H-imidazo[4,5-c]pyridin-6-yl)amine], 43.3 nM. With `CC(C)n1c(CO)nc2cnc(Nc3ccnc(-c4cnn(S(=O)(=O)C5CC5)c4)n3)cc21` [Example 272, {6-[2-(1-Cyclopropanesulfonyl-1H-pyrazol-4-yl)pyrimidin-4-ylamino]-1-isopropyl-1H-imidazo[4,5-c]pyridin-2-yl}methanol], the Ki stood at 2.12 nM. To `Cc1nc2cnc(Nc3ccnc(N4CC[C@H](O)C4)n3)cc2n1C(C)C` [Example 681] belongs 189 nM. To `C[C@H](n1c([C@@H](C)O)nc2cnc(Nc3ccnc(N4CCC(C)(O)CC4)n3)cc21)C(F)(F)F` [Example 683] belongs 13.2 nM; to `CC(CC(F)(F)F)n1c(CO)nc2cnc(Nc3ccnc(-c4cnn(S(=O)(=O)C5CC5)c4)n3)cc21` (stereo not shown) [Example 696], 7.67 nM; to `Cc1nc2cnc(Nc3ccnc(-n4ccnc4)n3)cc2n1C(C)C` [Example 599, (2-Imidazol-1-ylpyrimidin-4-yl)-(1-isopropyl-2-methyl-1H-imidazo[4,5-c]pyridin-6-yl)amine], 27.5 nM. Regarding `CC(C)n1cnc2cnc(Nc3ccnc(N4CC5CC4CC5F)n3)cc21` (stereo not shown) [Example 191], the Ki was 54.7 nM. Take `C[C@H](O)c1nc2cnc(Nc3ccnc(N4CC[C@H](O)[C@H](F)C4)n3)cc2n1[C@@H](C)C(F)(F)F` [Example 686]: the Ki is 18.5 nM. To `CCc1ncc(-c2nccc(Nc3cc4c(cn3)nc(C)n4C(C)C)n2)s1` [Example 595, [2-(2-Ethylthiazol-5-yl)pyrimidin-4-yl]-(1-isopropyl-2-methyl-1H-imidazo[4,5-c]pyridin-6-yl)amine] belongs 9.62 nM; to `COc1nc2cnc(Nc3ccnc(N4CCC(OC)CC4)n3)cc2n1C(C)C` [Example 11, (1-Isopropyl-2-methoxy-1H-imidazo[4,5-c]pyridin-6-yl)-[2-(4-methoxypiperidin-1-yl)pyrimidin-4-yl]amine], 98.4 nM; to `Cc1nc2cnc(Nc3ccnc(N4CC[C@H](F)C4)n3)cc2n1C(C)C` [Example 592, [2-((S)-3-Fluoropyrrolidin-1-yl)pyrimidin-4-yl]-(1-isopropyl-2-methyl-1H-imidazo[4,5-c]pyridin-6-yl)amine], 57.5 nM. For the compound `Cc1nc2cnc(Nc3ccnc(N4CCC5(OCCO5)C(F)C4)n3)cc2n1C(C)C` (stereo not shown) [Example 653], the Ki amounted to 34.3 nM. `CC(C)n1cc(-c2cn3c(n2)CNCC3)c2cnc(Nc3ccnc(-c4cnn(S(=O)(=O)C5CC5)c4)n3)cc21` [Example 442, N-(2-(1-(cyclopropylsulfonyl)-1H-pyrazol-4-yl)pyrimidin-4-yl)-1-isopropyl-3-(5,6,7,8-tetrahydroimidazo[1,2-a]pyrazin-2-yl)-1H-pyrrolo[3,2-c]pyridin-6-amine]: the Ki turned out to be 0.81 nM. In the case of `Cc1nc2cnc(Nc3ccnc(NCC(F)(F)C(N)=O)n3)cc2n1C(C)C` [Example 610, 2,2-Difluoro-3-[4-(1-isopropyl-2-methyl-1H-imidazo[4,5-c]pyridin-6-ylamino)pyrimidin-2-ylamino]propionamide] it was 13.2 nM; in that of `Cc1nc2cnc(Nc3ccnc(-c4cnn(S(=O)(=O)C5CCNC5)c4)n3)cc2n1C(C)C` (stereo not shown) [Example 258, 1-Isopropyl-2-methyl-N-(2-(1-(pyrrolidin-3-ylsulfonyl)-1H-pyrazol-4-yl)pyrimidin-4-yl)-1H-imidazo[4,5-c]pyridin-6-amine], 4.25 nM; in that of `CCC(C)n1cc(C(=O)NC2CCN(C3COC3)CC2)c2cnc(Nc3ccnc(N4CC[C@H](O)[C@H](F)C4)n3)cc21` (mixture of isomers) [Example 389, 1-(sec-butyl)-6-((2-((3R,4S)-3-fluoro-4-hydroxypiperidin-1-yl)pyrimidin-4-yl)amino)-N-(1-(oxetan-3-yl)piperidin-4-yl)-1H-pyrrolo[3,2-c]pyridine-3-carboxamide], 4.03 nM. On to `CC(n1cc(C(=O)NC2CCOCC2)c2cnc(Nc3ccnc(N4CCC(C)(O)CC4)n3)cc21)C(F)(F)F` (stereo not shown) [Example 636, 6-(2-(4-Hydroxy-4-methylpiperidin-1-yl)pyrimidin-4-ylamino)-N-(tetrahydro-2H-pyran-4-yl)-1-(1,1,1-trifluoropropan-2-yl)-1H-pyrrolo[3,2-c]pyridine-3-carboxamide], for which the Ki is 14.4 nM. On to `Cc1nc2cnc(Nc3ccnc(-c4cnn(S(=O)(=O)C(C)C)c4)n3)cc2n1C(C)C` [Example 409, 1-isopropyl-N-(2-(1-(isopropylsulfonyl)-1H-pyrazol-4-yl)pyrimidin-4-yl)-2-methyl-1H-imidazo[4,5-c]pyridin-6-amine], for which the Ki was determined as 1.97 nM. In the case of `CCC(C)n1cc(C(=O)NC2COCCOC2)c2cnc(Nc3ccnc(-c4cnn(S(=O)(=O)C5CC5)c4)n3)cc21` (stereo not shown) [Example 700] it was 1.65 nM. To `COC1CCN(c2nccc(Nc3cc4c(cn3)c(C(=O)NCCO)cn4C(C)C)n2)CC1` [Example 121, N-(2-hydroxyethyl)-1-isopropyl-6-((2-(4-methoxypiperidin-1-yl)pyrimidin-4-yl)amino)-1H-pyrrolo[3,2-c]pyridine-3-carboxamide] belongs 24.4 nM. Turning to `CO[C@H]1CCN(c2nccc(Nc3cc4c(cn3)nc([C@@H](C)O)n4[C@@H](C)C(F)(F)F)n2)C[C@H]1F` [Example 288, (R)-1-[6-[2-((3R,4S)-3-Fluoro-4-methoxypiperidin-1-yl)-pyrimidin-4-ylamino]-1-((S)-2,2,2-trifluoro-1-methylethyl)-1H-imidazo[4,5-c]pyridin-2-yl]ethanol], the Ki is 4 nM. To `CO[C@H]1CCN(c2nccc(Nc3cc4c(cn3)nc(CO)n4C(C)C)n2)C[C@H]1C(F)(F)F` (racemic) [Example 628, (1-Isopropyl-6-(2-((±)-(cis)-4-methoxy-3-(trifluoromethyl)piperidin-1-yl)pyrimidin-4-ylamino)-1H-imidazo[4,5-c]pyridin-2-yl)methanol] belongs 1190 nM; to `COCCC(C)(C)n1c(CO)nc2cnc(Nc3ccnc(-c4cnn(S(=O)(=O)C5CC5)c4)n3)cc21` [Example 695], 68.8 nM; to `CCC(C)n1cc(C(=O)NCC(F)(F)F)c2cnc(Nc3ccnc(-c4cnn(S(=O)(=O)C5CC5)c4)n3)cc21` (stereo not shown) [Example 704], 3.35 nM.

Turning to `CO[C@H]1CCN(c2nccc(Nc3cc4c(cn3)nc(CO)n4C(C)C)n2)C[C@H]1F` [Example 655], the Ki worked out at 60.8 nM. In the case of `CCS(=O)(=O)n1cc(-c2nccc(Nc3cc4c(cn3)c(C(=O)NC3COC3)cn4C(C)C)n2)cn1` [Example 448, 6-(2-(1-(ethylsulfonyl)-1H-pyrazol-4-yl)pyrimidin-4-ylamino)-1-isopropyl-N-(oxetan-3-yl)-1H-pyrrolo[3,2-c]pyridine-3-carboxamide], the Ki came out at 0.62 nM. In the case of `COC1CCN(c2nccc(Nc3cc4c(cn3)c(-c3cnn(CC(N)=O)c3)cn4C(C)C)n2)CC1` [Example 410, 2-(4-(1-isopropyl-6-((2-(4-methoxypiperidin-1-yl)pyrimidin-4-yl)amino)-1H-pyrrolo[3,2-c]pyridin-3-yl)-1H-pyrazol-1-yl)acetamide] it was 4.86 nM. In the case of `CC(C)n1c(CO)nc2cnc(Nc3ccnc(N4CCCCC4CCO)n3)cc21` (stereo not shown) [Example 668] it was 451 nM.

For the compound `CCC(C)n1cc(C(=O)NC2CCC(O)CC2)c2cnc(Nc3ccnc(-c4cnn(S(=O)(=O)C5CC5)c4)n3)cc21` (stereo not shown) [Example 705], the Ki was 2.37 nM.
